Assays:
Assay in all cases: Test D preemergence
Type in all cases: in vivo
Details in all cases: scale 0 to 100
[1] = test system: bluegrass (annual bluegrass, Poa annua)
Description: (§1) Seeds of plant species selected from bluegrass (annual bluegrass, Poa annua), blackgrass (Alopecurus myosuroides), canarygrass (Phalaris minor), chickweed (common chickweed, Stellaria media), cutleaf geranium (Geranium dissectum), galium (catchweed bedstraw, Galium aparine), downy bromegrass (Bromus tectorum), field poppy (Papaver rhoeas), field violet (Viola arvensis), green foxtail (Setaria viridis), deadnettle (henbit deadnettle, Lamium amplexicaule), Italian ryegrass (Lolium multiflorum), kochia (Kochia scoparia), lambsquarters (Chenopodium album), oilseed rape (Brassica napus), pigweed (Amaranthus retroflexus), chamomile (scentless chamomile, Matricaria inodora), Russian thistle (Salsola kali), speedwell (bird's-eye speedwell, Veronica persica), spring barley (Hordeum vulgare), spring wheat (Triticum aestivum), wild buckwheat (Polygonum convolvulus), wild mustard (Sinapis arvensis), wild oat (Avenafatua), wild radish (Raphanus raphanistrum), windgrass (Apera spica-venti), winter barley (Hordeum vulgare), and winter wheat (Triticum aestivum) were planted into a silt loam soil and treated preemergence with test chemicals formulated in a non-phytotoxic solvent mixture which included a surfactant.
(§2) At the same time, these species were planted in pots containing Redi-Earth® planting medium (Scotts Company, 14111 Scottslawn Road, Marysville, Ohio 43041) comprising spaghnum peat moss, vermiculite, wetting agent and starter nutrients and treated with postemergence applications of the test chemicals formulated in the same manner. Plants ranged in height from 2 to 18 cm (1- to 4-leaf stage). Treated plants and controls were maintained in a controlled growth environment for 14 to 21 days after which time all species were compared to controls and visually evaluated. Plant response ratings, summarized in Table D, are based on a scale of 0 to 100 where 0 is no effect and 100 is complete control. A dash (-) response means no test result.

[2] = test system: canarygrass (Phalaris minor)
Description: as §1, §2

[3] = test system: chamomile (scentless chamomile, Matricaria inodora)
Description: as §1, §2

[4] = test system: chickweed (common chickweed, Stellaria media)
Description: as §1, §2

[5] = test system: deadnettle (henbit deadnettle, Lamium amplexicaule)
Description: as §1, §2

[6] = test system: downy bromegrass (Bromus tectorum)
Description: as §1, §2

[7] = test system: field poppy (Papaver rhoeas)
Description: as §1, §2

[8] = test system: field violet (Viola arvensis)
Description: as §1, §2

[9] = test system: galium (catchweed bedstraw, Galium aparine)
Description: as §1, §2

[10] = test system: oilseed rape (Brassica napus)
Description: as §1, §2

[11] = test system: speedwell (bird's-eye speedwell, Veronica persica)
Description: as §1, §2

[12] = test system: spring barley (Hordeum vulgare)
Description: as §1, §2

[13] = test system: wild buckwheat (Polygonum convolvulus)
Description: as §1, §2

[14] = test system: wild mustard (Sinapis arvensis)
Description: as §1, §2

[15] = test system: windgrass (Apera spica-venti)
Description: as §1, §2

[16] = test system: winter barley (Hordeum vulgare)
Description: as §1, §2

[17] = test system: winter wheat (Triticum aestivum)
Description: as §1, §2

[18] = test system: Russian thistle (Salsola kali)
Description: as §1, §2

## N#Cc1cccc(Oc2ncc(Cl)cn2)c1Oc1ncc(Cl)cn1 [Compound 3, 2,3-bis[(5-chloro-2-pyrimidinyl)oxy]benzonitrile]
[1]; 16 g ai/ha
  Plant response rating, Bluegrass: 0
[1]; 31 g ai/ha
  Plant response rating, Bluegrass: 0
[1]; 62 g ai/ha
  Plant response rating, Bluegrass: 25
[1]; 125 g ai/ha
  Plant response rating, Bluegrass: 85
[2]; 16 g ai/ha
  Plant response rating, Canarygrass: 0
[2]; 31 g ai/ha
  Plant response rating, Canarygrass: 5
[2]; 62 g ai/ha
  Plant response rating, Canarygrass: 20
[2]; 125 g ai/ha
  Plant response rating, Canarygrass: 80
[3]; 16 g ai/ha
  Plant response rating, Chamomile: 10
[3]; 31 g ai/ha
  Plant response rating, Chamomile: 20
[3]; 62 g ai/ha
  Plant response rating, Chamomile: 35
[3]; 125 g ai/ha
  Plant response rating, Chamomile: 85
[4]; 16 g ai/ha
  Plant response rating, Chickweed: 100
[4]; 31 g ai/ha
  Plant response rating, Chickweed: 100
[4]; 62 g ai/ha
  Plant response rating, Chickweed: 100
[4]; 125 g ai/ha
  Plant response rating, Chickweed: 100
[5]; 16 g ai/ha
  Plant response rating, Deadnettle: 70
[5]; 31 g ai/ha
  Plant response rating, Deadnettle: 95
[5]; 62 g ai/ha
  Plant response rating, Deadnettle: 100
[5]; 125 g ai/ha
  Plant response rating, Deadnettle: 100
[6]; 16 g ai/ha
  Plant response rating, Bromegrass, Downy: 0
[6]; 31 g ai/ha
  Plant response rating, Bromegrass, Downy: 0
[6]; 62 g ai/ha
  Plant response rating, Bromegrass, Downy: 5
[6]; 125 g ai/ha
  Plant response rating, Bromegrass, Downy: 15
[7]; 16 g ai/ha
  Plant response rating, Field Poppy: 90
[7]; 31 g ai/ha
  Plant response rating, Field Poppy: 100
[7]; 62 g ai/ha
  Plant response rating, Field Poppy: 100
[7]; 125 g ai/ha
  Plant response rating, Field Poppy: 100
[8]; 16 g ai/ha
  Plant response rating, Field Violet: 100
[8]; 31 g ai/ha
  Plant response rating, Field Violet: 100
[8]; 62 g ai/ha
  Plant response rating, Field Violet: 100
[8]; 125 g ai/ha
  Plant response rating, Field Violet: 100
[9]; 16 g ai/ha
  Plant response rating, Galium: 20
[9]; 31 g ai/ha
  Plant response rating, Galium: 100
[9]; 62 g ai/ha
  Plant response rating, Galium: 100
[9]; 125 g ai/ha
  Plant response rating, Galium: 100
[10]; 16 g ai/ha
  Plant response rating, Oilseed Rape: 10
[10]; 31 g ai/ha
  Plant response rating, Oilseed Rape: 25
[10]; 62 g ai/ha
  Plant response rating, Oilseed Rape: 35
[10]; 125 g ai/ha
  Plant response rating, Oilseed Rape: 100
[11]; 16 g ai/ha
  Plant response rating, Speedwell: 70
[11]; 31 g ai/ha
  Plant response rating, Speedwell: 100
[11]; 62 g ai/ha
  Plant response rating, Speedwell: 100
[11]; 125 g ai/ha
  Plant response rating, Speedwell: 100
[12]; 16 g ai/ha
  Plant response rating, Barley, Spring: 0
[12]; 31 g ai/ha
  Plant response rating, Barley, Spring: 0
[12]; 62 g ai/ha
  Plant response rating, Barley, Spring: 0
[12]; 125 g ai/ha
  Plant response rating, Barley, Spring: 40
[13]; 16 g ai/ha
  Plant response rating, Buckwheat, Wild: 0
[13]; 31 g ai/ha
  Plant response rating, Buckwheat, Wild: 30
[13]; 62 g ai/ha
  Plant response rating, Buckwheat, Wild: 75
[13]; 125 g ai/ha
  Plant response rating, Buckwheat, Wild: 100
[14]; 16 g ai/ha
  Plant response rating, Mustard, Wild: 15
[14]; 31 g ai/ha
  Plant response rating, Mustard, Wild: 60
[14]; 62 g ai/ha
  Plant response rating, Mustard, Wild: 95
[14]; 125 g ai/ha
  Plant response rating, Mustard, Wild: 100
[15]; 16 g ai/ha
  Plant response rating, Windgrass: 10
[15]; 31 g ai/ha
  Plant response rating, Windgrass: 15
[15]; 62 g ai/ha
  Plant response rating, Windgrass: 50
[15]; 125 g ai/ha
  Plant response rating, Windgrass: 80
[16]; 16 g ai/ha
  Plant response rating, Barley, Winter: 0
[16]; 31 g ai/ha
  Plant response rating, Barley, Winter: 0
[16]; 62 g ai/ha
  Plant response rating, Barley, Winter: 20
[16]; 125 g ai/ha
  Plant response rating, Barley, Winter: 70
[17]; 16 g ai/ha
  Plant response rating, Wheat, Winter: 0
[17]; 31 g ai/ha
  Plant response rating, Wheat, Winter: 0
[17]; 62 g ai/ha
  Plant response rating, Wheat, Winter: 5
[17]; 125 g ai/ha
  Plant response rating, Wheat, Winter: 10

## Fc1cccc(Oc2ncc(C(F)(F)F)cn2)c1Oc1ncc(Cl)cn1 [Compound 42, 5-chloro-2-[2-fluoro-6-[[5-(trifluoromethyl)-2-pyrimidinyl]oxy]phenoxy]pyrimidine]
[18]; 16 g ai/ha
  Plant response rating, Russian Thistle: 0
[18]; 31 g ai/ha
  Plant response rating, Russian Thistle: 20
[18]; 62 g ai/ha
  Plant response rating, Russian Thistle: 15
[18]; 125 g ai/ha
  Plant response rating, Russian Thistle: 55
[1]; 16 g ai/ha
  Plant response rating, Bluegrass: 10
[1]; 31 g ai/ha
  Plant response rating, Bluegrass: 0
[1]; 62 g ai/ha
  Plant response rating, Bluegrass: 45
[1]; 125 g ai/ha
  Plant response rating, Bluegrass: 90
[2]; 16 g ai/ha
  Plant response rating, Canarygrass: 15
[2]; 31 g ai/ha
  Plant response rating, Canarygrass: 35
[2]; 62 g ai/ha
  Plant response rating, Canarygrass: 35
[2]; 125 g ai/ha
  Plant response rating, Canarygrass: 100
[4]; 16 g ai/ha
  Plant response rating, Chickweed: 70
[4]; 31 g ai/ha
  Plant response rating, Chickweed: 100
[4]; 62 g ai/ha
  Plant response rating, Chickweed: 100
[4]; 125 g ai/ha
  Plant response rating, Chickweed: 100
[5]; 16 g ai/ha
  Plant response rating, Deadnettle: 70
[5]; 31 g ai/ha
  Plant response rating, Deadnettle: 85
[5]; 62 g ai/ha
  Plant response rating, Deadnettle: 100
[5]; 125 g ai/ha
  Plant response rating, Deadnettle: 100
[6]; 16 g ai/ha
  Plant response rating, Bromegrass, Downy: 0
[6]; 31 g ai/ha
  Plant response rating, Bromegrass, Downy: 10
[6]; 62 g ai/ha
  Plant response rating, Bromegrass, Downy: 50
[6]; 125 g ai/ha
  Plant response rating, Bromegrass, Downy: 65
[8]; 16 g ai/ha
  Plant response rating, Field Violet: 25
[8]; 31 g ai/ha
  Plant response rating, Field Violet: 100
[8]; 62 g ai/ha
  Plant response rating, Field Violet: 100
[8]; 125 g ai/ha
  Plant response rating, Field Violet: 100
[9]; 16 g ai/ha
  Plant response rating, Galium: 65
[9]; 31 g ai/ha
  Plant response rating, Galium: 70
[9]; 62 g ai/ha
  Plant response rating, Galium: 100
[9]; 125 g ai/ha
  Plant response rating, Galium: 100
[10]; 16 g ai/ha
  Plant response rating, Oilseed Rape: 50
[10]; 31 g ai/ha
  Plant response rating, Oilseed Rape: 70
[10]; 62 g ai/ha
  Plant response rating, Oilseed Rape: 100
[10]; 125 g ai/ha
  Plant response rating, Oilseed Rape: 100
[12]; 16 g ai/ha
  Plant response rating, Barley, Spring: 0
[12]; 31 g ai/ha
  Plant response rating, Barley, Spring: 35
[12]; 62 g ai/ha
  Plant response rating, Barley, Spring: 15
[12]; 125 g ai/ha
  Plant response rating, Barley, Spring: 65
[13]; 16 g ai/ha
  Plant response rating, Buckwheat, Wild: 0
[13]; 31 g ai/ha
  Plant response rating, Buckwheat, Wild: 0
[13]; 62 g ai/ha
  Plant response rating, Buckwheat, Wild: 100
[13]; 125 g ai/ha
  Plant response rating, Buckwheat, Wild: 100
[14]; 16 g ai/ha
  Plant response rating, Mustard, Wild: 70
[14]; 31 g ai/ha
  Plant response rating, Mustard, Wild: 65
[14]; 62 g ai/ha
  Plant response rating, Mustard, Wild: 85
[14]; 125 g ai/ha
  Plant response rating, Mustard, Wild: 100
[15]; 16 g ai/ha
  Plant response rating, Windgrass: 15
[15]; 31 g ai/ha
  Plant response rating, Windgrass: 60
[15]; 62 g ai/ha
  Plant response rating, Windgrass: 90
[15]; 125 g ai/ha
  Plant response rating, Windgrass: 100
[16]; 16 g ai/ha
  Plant response rating, Barley, Winter: 0
[16]; 31 g ai/ha
  Plant response rating, Barley, Winter: 0
[16]; 62 g ai/ha
  Plant response rating, Barley, Winter: 15
[16]; 125 g ai/ha
  Plant response rating, Barley, Winter: 80
[17]; 16 g ai/ha
  Plant response rating, Wheat, Winter: 0
[17]; 31 g ai/ha
  Plant response rating, Wheat, Winter: 0
[17]; 62 g ai/ha
  Plant response rating, Wheat, Winter: 0
[17]; 125 g ai/ha
  Plant response rating, Wheat, Winter: 50
